Source: ChEMBL document CHEMBL1201862, “PubChem BioAssay data set” (2004)
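96-well plates; 48 h exposure; 5 concentrations. Endpoints by linear interpolation between flanking doses. Not reached: highest tested concentration assigned. Abbreviation: GI50, concentration required for 50% inhibition of growth.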 Active and inactive are the calls of the source. Rule as the data show it: active = GI50 up to about 1.1 µM and inactive = higher.

Tests used:
Assay in all cases: growth of human tumour cells (NCI), 48 h
[1] = tested on: NCI-H226
[2] = tested on: UO-31
[3] = tested on: SK-MEL-5
[4] = tested on: MCF7
[5] = tested on: SW-620
[6] = tested on: SF-539
[7] = tested on: HCT-116
[8] = tested on: SF-268
[9] = tested on: SK-MEL-28
[10] = tested on: 786-0
[11] = tested on: SR
[12] = tested on: HCT-15
[13] = tested on: OVCAR-8
[14] = tested on: LOX IMVI
[15] = tested on: CAKI-1
[16] = tested on: TK-10
[17] = tested on: SNB-19
[18] = tested on: A498
[19] = tested on: NCI/ADR-RES
[20] = tested on: U-251
[21] = tested on: CCRF-CEM
[22] = tested on: MDA-MB-231
[23] = tested on: A549
[24] = tested on: Malme-3M
[25] = tested on: SF-295
[26] = tested on: OVCAR-3
[27] = tested on: SK-OV-3
[28] = tested on: OVCAR-5
[29] = tested on: COLO 205
[30] = tested on: DU-145
[31] = tested on: ACHN
[32] = tested on: UACC-257
[33] = tested on: MOLT-4
[34] = tested on: HCC 2998
[35] = tested on: RPMI-8226
[36] = tested on: UACC-62
[37] = tested on: BT-549
[38] = tested on: K562
[39] = tested on: NCI-H460
[40] = tested on: EKVX
[41] = tested on: MDA-N
[42] = tested on: SN12C
[43] = tested on: HOP-62
[44] = tested on: MDA-MB-435
[45] = tested on: HOP-92
[46] = tested on: RXF 393
[47] = tested on: HL-60
[48] = tested on: NCI-H23
[49] = tested on: M14
[50] = tested on: IGROV-1
[51] = tested on: SK-MEL-2
[52] = tested on: Hs-578T
[53] = tested on: HT-29
[54] = tested on: PC-3
[55] = tested on: OVCAR-4
[56] = tested on: KM12
[57] = tested on: NCI-H522
[58] = tested on: T47D
[59] = tested on: SNB-75

COc1ccc(N2C(=O)CC(c3c[nH]c4ccccc34)C2=O)cc1 (stereo not drawn)
GI50 [1]: > 100 µM (inactive)
GI50 [2]: > 100 µM (inactive)
GI50 [3]: > 100 µM (inactive)
GI50 [4]: > 100 µM (inactive)
GI50 [5]: > 100 µM (inactive)
GI50 [6]: > 100 µM (inactive)
GI50 [7]: > 100 µM (inactive)
GI50 [8]: > 100 µM (inactive)
GI50 [9]: > 100 µM (inactive)
GI50 [10]: > 100 µM (inactive)
GI50 [11]: > 100 µM (inactive)
GI50 [12]: > 100 µM
GI50 [13]: > 100 µM (inactive)
GI50 [14]: > 100 µM (inactive)
GI50 [15]: > 100 µM (inactive)
GI50 [16]: > 100 µM (inactive)
GI50 [17]: > 100 µM (inactive)
GI50 [18]: > 100 µM (inactive)
GI50 [19]: 97.3 µM (inactive)
GI50 [20]: > 100 µM (inactive)
GI50 [21]: > 100 µM (inactive)
GI50 [22]: > 100 µM (inactive)
GI50 [23]: > 100 µM (inactive)
GI50 [24]: > 100 µM (inactive)
GI50 [25]: > 100 µM (inactive)
GI50 [26]: > 100 µM (inactive)
GI50 [27]: > 100 µM (inactive)
GI50 [28]: > 100 µM (inactive)
GI50 [29]: > 100 µM (inactive)
GI50 [30]: > 100 µM (inactive)
GI50 [31]: > 100 µM (inactive)
GI50 [32]: > 100 µM (inactive)
GI50 [33]: > 100 µM (inactive)
GI50 [34]: > 100 µM (inactive)
GI50 [35]: > 100 µM (inactive)
GI50 [36]: > 100 µM (inactive)
GI50 [37]: > 100 µM (inactive)
GI50 [38]: > 100 µM (inactive)
GI50 [39]: > 100 µM (inactive)
GI50 [40]: > 100 µM (inactive)
GI50 [41]: > 100 µM (inactive)
GI50 [42]: > 100 µM (inactive)
GI50 [43]: > 100 µM (inactive)
GI50 [44]: > 100 µM (inactive)
GI50 [45]: > 100 µM (inactive)
GI50 [46]: > 100 µM (inactive)
GI50 [47]: > 100 µM (inactive)
GI50 [48]: > 100 µM (inactive)
GI50 [49]: > 100 µM (inactive)
GI50 [50]: > 100 µM (inactive)
GI50 [51]: > 100 µM (inactive)
GI50 [52]: 9.08 µM (inactive)
GI50 [53]: > 100 µM (inactive)
GI50 [54]: > 100 µM (inactive)

CN(C)c1ccc(/C=C/c2cc(-c3ccccc3)[n+](C)n2-c2ccccc2)cc1
GI50 [1]: 0.138 µM (active)
GI50 [2]: 1.86 µM (inactive)
GI50 [3]: 0.0341 µM (active)
GI50 [4]: 0.157 µM (active)
GI50 [5]: 0.299 µM (active)
GI50 [6]: 1.49 µM (inactive)
GI50 [7]: 0.125 µM (active)
GI50 [8]: 0.431 µM (active)
GI50 [9]: 0.597 µM (active)
GI50 [10]: 0.43 µM (active)
GI50 [11]: 0.103 µM (active)
GI50 [12]: 3.61 µM
GI50 [13]: 0.207 µM (active)
GI50 [14]: 0.299 µM (active)
GI50 [55]: 6.41 µM (inactive)
GI50 [15]: 1.91 µM (inactive)
GI50 [16]: 1.7 µM (inactive)
GI50 [17]: 0.0865 µM (active)
GI50 [18]: 0.774 µM (active)
GI50 [19]: 4.5 µM (inactive)
GI50 [20]: 0.0573 µM (active)
GI50 [56]: 0.0635 µM (active)
GI50 [21]: 0.035 µM (active)
GI50 [22]: 0.242 µM (active)
GI50 [23]: 0.411 µM (active)
GI50 [25]: 0.614 µM (active)
GI50 [26]: 0.234 µM (active)
GI50 [27]: 0.401 µM (active)
GI50 [28]: 1.6 µM (inactive)
GI50 [57]: < 0.01 µM (active)
GI50 [29]: 0.094 µM (active)
GI50 [30]: 0.215 µM (active)
GI50 [31]: 1.44 µM (inactive)
GI50 [32]: 0.122 µM (active)
GI50 [33]: 0.144 µM (active)
GI50 [34]: 1.64 µM (inactive)
GI50 [35]: 0.0221 µM (active)
GI50 [36]: 0.481 µM (active)
GI50 [37]: 0.0571 µM (active)
GI50 [38]: 0.0531 µM (active)
GI50 [39]: 0.122 µM (active)
GI50 [40]: 0.138 µM (active)
GI50 [41]: 0.114 µM (active)
GI50 [42]: 0.293 µM (active)
GI50 [43]: 0.54 µM (active)
GI50 [44]: 0.158 µM (active)
GI50 [45]: 0.467 µM (active)
GI50 [46]: 0.281 µM (active)
GI50 [47]: 0.0218 µM (active)
GI50 [48]: 0.0349 µM (active)
GI50 [49]: 0.617 µM (active)
GI50 [50]: 0.154 µM (active)
GI50 [51]: 0.224 µM (active)
GI50 [52]: 0.0332 µM (active)
GI50 [53]: 0.0995 µM (active)
GI50 [54]: 0.158 µM (active)

O=[N+]([O-])c1sc2ccc(Cl)cc2c1Nc1ccc(Cl)cc1
GI50 [1]: > 100 µM (inactive)
GI50 [2]: > 100 µM (inactive)
GI50 [58]: > 100 µM (inactive)
GI50 [3]: > 100 µM (inactive)
GI50 [4]: > 100 µM (inactive)
GI50 [5]: > 100 µM (inactive)
GI50 [6]: > 100 µM (inactive)
GI50 [8]: > 100 µM (inactive)
GI50 [9]: > 100 µM (inactive)
GI50 [10]: > 100 µM (inactive)
GI50 [12]: > 100 µM
GI50 [13]: > 100 µM (inactive)
GI50 [14]: > 100 µM (inactive)
GI50 [55]: 2.55 µM (inactive)
GI50 [16]: > 100 µM (inactive)
GI50 [17]: > 100 µM (inactive)
GI50 [18]: > 100 µM (inactive)
GI50 [19]: > 100 µM (inactive)
GI50 [20]: > 100 µM (inactive)
GI50 [56]: > 100 µM (inactive)
GI50 [21]: > 100 µM (inactive)
GI50 [22]: > 100 µM (inactive)
GI50 [23]: > 100 µM (inactive)
GI50 [24]: > 100 µM (inactive)
GI50 [25]: > 100 µM (inactive)
GI50 [26]: > 100 µM (inactive)
GI50 [59]: > 100 µM (inactive)
GI50 [27]: > 100 µM (inactive)
GI50 [28]: > 100 µM (inactive)
GI50 [57]: > 100 µM (inactive)
GI50 [29]: > 100 µM (inactive)
GI50 [30]: > 100 µM (inactive)
GI50 [31]: > 100 µM (inactive)
GI50 [33]: > 100 µM (inactive)
GI50 [34]: > 100 µM (inactive)
GI50 [35]: > 100 µM (inactive)
GI50 [36]: > 100 µM (inactive)
GI50 [37]: > 100 µM (inactive)
GI50 [38]: > 100 µM (inactive)
GI50 [39]: > 100 µM (inactive)
GI50 [40]: > 100 µM (inactive)
GI50 [42]: > 100 µM (inactive)
GI50 [43]: > 100 µM (inactive)
GI50 [44]: > 100 µM (inactive)
GI50 [46]: > 100 µM (inactive)
GI50 [47]: > 100 µM (inactive)
GI50 [48]: > 100 µM (inactive)
GI50 [49]: > 100 µM (inactive)
GI50 [50]: > 100 µM (inactive)
GI50 [51]: > 100 µM (inactive)
GI50 [52]: > 100 µM (inactive)
GI50 [53]: > 100 µM (inactive)
GI50 [54]: > 100 µM (inactive)
